According to patent US20220047559A1, “DRUG COMPOSITION FOR TREATING BREAST CANCER AND METHOD FOR MANUFACTURING THE SAME” (National Chiao Tung University, priority 2020, published 2022):

Columns and labels:
[1] = Release of drugs from dialysis bag in pH 7.4 PBS buffer solution; assay type: physicochemical; settings: 37° C.
Method: FIG. 3A and FIG. 3B show the release curves of ganetespib. FIG. 3C and FIG. 3D show the release curves of curcumin For free ganetespib, the dialysis bag stops release after 8 hours, and about 73% ganetespib is released. For ganetespib in the drug composition, the dialysis bag continues release until as long as 12 hours has elapsed, and about 80% ganetespib is released. As indicated by the arrows in FIG. 3B, CHC/GAN where ganetespib is encapsulated by CHC releases ganetespib more slowly and has higher content of ganetespib. It is because CHC protects ganetespib from being damaged by the environment and makes ganetespib release slowly. For free curcumin, although the dialysis bag have continued releasing curcumin for as long as 168 hours, the accumulated released curcumin is only about 8%. The slow release rate of free curcumin is owing to low aqueous solubility of curcumin Low aqueous solubility of curcumin also leads to low bioavailability of curcumin. The release rate of the curcumin in CHC/CCM is about the same as the free curcumin. The accumulated released curcumin of the curcumin in CHC/CCM is about 9%, slightly higher than that of the free curcumin. However, it can be seen in FIG. 3D: the difference therebetween increases with time.

[2] = test system: SK-BR-3 cells; assay: Cytotoxicity test (MTS, cell survival rate, IC50, combination index); assay type: cell-based; settings: Homo sapiens, 48 hours
Method: Culture SK-BR-3 cells in a 24-well culture plate, and each well has 10^4 cells. After cells have attached to the culture plate for 20-24 hours, remove the culture liquid, and rinse the cells with PBS. Use Dulbecco's Modified Eagle Medium (DMEM) to dilute the drug compositions GAN, CCM, CHC/GAN, CHC/CCM, and CHC/GAN-CCM. Add the diluted drug compositions to the cells, and co-culture each drug composition and the cells for 48 hours. Remove DMEM, and flush the product of co-culture with PBS. Add MTS and DMEM (1:5 (v/v)) into each well of the cell culture plate, and culture them for 2-4 hours. Use a microplate reader to measure the absorptivity of the light having a wavelength of 490 nm, whereby to estimate the cell survival rates. The cell survival rate can be used to determine the half inhibitory concentration (IC50) and the combination index (CI) of two drugs. CHC/GAN and CHC/CCM can more effectively kill cells than the drugs in form of free molecules. […] Therefore, the drug composition carried by CHC nanoparticles can more effectively treat breast cancer in smaller dosage. Especially, while ganetespib is carried by CHC nanocarriers, the treating effect may be increased 60-70 times. […] The results also indicate that the effective concentration of the drug composition of the present invention may be lower than that of the conventional drug composition. […]

Row | SMILES | accumulated released curcumin ([1]; 168 hours) | IC50 ([2]; curcumin) | time after which release of ganetespib stops [1] | ganetespib released ([1]; at the time release stops) | IC50 ([2]; ganetespib)
1 | COc1cc(/C=C/C(=O)CC(=O)/C=C/c2ccc(O)c(OC)c2)ccc1O [CCM, curcumin] | about 8% | 12 µg/mL | – | – | –
2 | CC(C)c1cc(-c2n[nH]c(=O)n2-c2ccc3c(ccn3C)c2)c(O)cc1O [GAN, ganetespib] | – | – | 8 h | about 73% | 0.00188 µg/mL
